Patent US20240173419A1, “CDK2 DEGRADERS AND USES THEREOF” (Kymera Therapeutics, Inc., priority 2022, published 2024)

Molecular target: T1, CDK2 (Homo sapiens, UniProt P24941)
T1 construct: endogenous in cells; host or cells: MKN1 cells
Assay: CDK2 degradation in MKN1 cells (AlphaLISA)
Type: cell-based
Conditions: for CDK2 degradation 14 h: Average Dmax % / DC50: 14 h incubation; for DC50: read-out: CDK2 degradation 14 h: Mean external-Abs DC50; for Dmax: MKN-1, 14 h incubation
How it was run: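 DC50 from four-parameter logistic fit of AlphaLISA CDK2 signal, corrected for no-cell wells. Lysates came from MKN1 cells, 2e4 per well, exposed 14 h at 37° C to compound at 0.001 nM-10 μM (1:5 series, 11 doses) in 0.1% DMSO.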

| SMILES | CDK2 degradation 14 h: Average Dmax % | DC50 [nM] | Dmax [%] |
| --- | --- | --- | --- |
| Cc1cc(S(=O)(=O)NC2CC(N3CCC4(CC3)CN(Cc3cccc5c3n(C)c(=O)n5C3CCC(=O)NC3=O)C4)C2)ccc1Nc1ncc(C(F)(F)F)c(N2CCCC(C)(O)C2)n1 (stereo not drawn) [I-697] | A (A (>75% o)) | 100 to 500 |  |
| Cc1cc(S(=O)(=O)NC2CC(N3CCN(CC4CCN(c5ccc(Cl)c(NC6CCC(=O)NC6=O)c5)CC4)CC3)C2)ccc1Nc1ncc(C(F)(F)F)c(N2CCCC(C)(O)C2)n1 (stereo not drawn) [I-716] | B (B (>50% -75%)) | > 1000 |  |
| Cc1cc(S(=O)(=O)NC2CC(N3CCN(CC4CCN(c5cccc(C6CCC(=O)NC6=O)c5)CC4)CC3)C2)ccc1Nc1ncc(C(F)(F)F)c(N2CCCC(C)(O)C2)n1 (stereo not drawn) [I-718] | A (A (>75% o)) | 100 to 500 |  |
| Cc1cc(S(=O)(=O)N[C@H](C)CO[C@H]2CC[C@H](CN3CCN(c4cccc5c4n(C)c(=O)n5C4CCC(=O)NC4=O)CC3)CC2)ccc1Nc1ncc(C(F)(F)F)c(N2CCC[C@](C)(O)C2)n1 (stereo partly drawn) [I-766, N-[(1R)-2-[4-[[4-[1-(2,6-dioxo-3-piperidyl)-3-methyl-2-oxo-benzimidazol-4-yl]piperazin-1-yl]methyl]cyclohexoxy]-1-methyl-ethyl]-4-[[4-[(3S)-3-hydroxy-3-methyl-1-piperidyl]-5-(trifluoromethyl)pyrimidin-2-yl]amino]-3-methyl-benzenesulfonamide] |  | < 100 | > 75 |
| Cc1cc(S(=O)(=O)NC2CCC(CN3CCN(c4cccc(NC5CCC(=O)NC5=O)c4)CC3)CC2)ccc1Nc1ncc(C(F)(F)F)c(N2CCCC(C)(O)C2)n1 (stereo not drawn) [I-775] | A (A (>75% o)) | < 100 |  |
| Cc1cc(S(=O)(=O)NC2CC(N3CCN(CC4CCN(c5cccc6c5n(C)c(=O)n6C5CCC(=O)NC5=O)CC4)CC3)C2)ccc1Nc1ncc(C(F)(F)F)c(N2CCCCC2)n1 (stereo not drawn) [I-795] | A (A (>75% o)) | < 100 |  |
| Cc1cc(S(=O)(=O)N[C@H]2C[C@H](N3CCN(CC4CCN(c5cccc6c5n(C)c(=O)n6C5CCC(=O)NC5=O)CC4)CC3)C2)ccc1Nc1ncc(C(F)(F)F)c(N2CCC[C@H](C(F)F)C2)n1 (stereo partly drawn) [I-796] | A (A (>75% o)) | < 100 |  |
| Cc1cc(S(=O)(=O)N[C@H]2C[C@H](N3CCN(CC4CCN(c5cccc6c5n(C)c(=O)n6C5CCC(=O)NC5=O)CC4)CC3)C2)ccc1Nc1ncc(C(F)(F)F)c(N2CCC[C@@H](C(F)F)C2)n1 (stereo partly drawn) [I-797] | A (A (>75% o)) | < 100 |  |
| Cc1cc(S(=O)(=O)NC2CCC(CN3CCN(c4ccc(C5CCC(=O)NC5=O)cc4)CC3)CC2)ccc1Nc1ncc(C(F)(F)F)c(N2CCCC(C)(O)C2)n1 (stereo not drawn) [I-799] | A (A (>75% o)) | < 100 |  |
| Cc1cc(S(=O)(=O)NC2CCC(CN3CCN(c4cc(Cl)c(C5CCC(=O)NC5=O)cc4F)CC3)CC2)ccc1Nc1ncc(C(F)(F)F)c(N2CCCC(C)(O)C2)n1 (stereo not drawn) [I-800] | A (A (>75% o)) | < 100 |  |
| Cc1cc(S(=O)(=O)NC2(C)CCN(CC3CCN(c4ccc(C5CCC(=O)NC5=O)c(Cl)c4)CC3)CC2)ccc1Nc1ncc(C(F)(F)F)c(N2CCC[C@](C)(O)C2)n1 (stereo partly drawn) [I-801] | A (A (>75% o)) | < 100 |  |
| Cc1cc(S(=O)(=O)NC23CCC(CN4CCN(c5ccc(C6CCC(=O)NC6=O)cc5)CC4)(CC2)CC3)ccc1Nc1ncc(C(F)(F)F)c(N2CCC[C@](C)(O)C2)n1 (stereo partly drawn) [I-802] | A (A (>75% o)) | < 100 |  |
| Cc1cc(S(=O)(=O)NC2(C)CCC(CN3CCN(c4ccc(C5CCC(=O)NC5=O)cc4F)CC3)CC2)ccc1Nc1ncc(C(F)(F)F)c(N2CCC[C@](C)(O)C2)n1 (stereo partly drawn) [I-803] | A (A (>75% o)) | < 100 |  |
| Cc1cc(S(=O)(=O)N[C@@H]2CCN(CC3CCN(c4ccc(C5CCC(=O)NC5=O)cc4F)CC3)C[C@H]2F)ccc1Nc1ncc(C(F)(F)F)c(N2CCC[C@](C)(O)C2)n1 (stereo partly drawn) [I-804] | A (A (>75% o)) | < 100 |  |
| Cc1cc(S(=O)(=O)NC2CCC(CN3CCN(c4cc(F)c(C5CCC(=O)NC5=O)cc4C)CC3)CC2)ccc1Nc1ncc(C(F)(F)F)c(N2CCCC(C)(O)C2)n1 (stereo not drawn) [I-806] | A (A (>75% o)) | < 100 |  |
| Cc1cc(S(=O)(=O)NC2CCC(CN3CCN(c4ccc(C5CCC(=O)NC5=O)cc4Cl)CC3)CC2)ccc1Nc1ncc(C(F)(F)F)c(N2CCCC(C)(O)C2)n1 (stereo not drawn) [I-807] | A (A (>75% o)) | < 100 |  |
| Cc1cc(S(=O)(=O)NC2(C)CCN(CC3(F)CCN(c4ccc(C5CCC(=O)NC5=O)cc4)CC3)CC2)ccc1Nc1ncc(C(F)(F)F)c(N2CCC[C@](C)(O)C2)n1 (stereo partly drawn) [I-808] | A (A (>75% o)) | < 100 |  |
| Cc1cc(S(=O)(=O)N[C@H]2CC[C@H](CN3CCN(c4ccc(C5CCC(=O)NC5=O)cc4F)C[C@@H]3C)CC2)ccc1Nc1ncc(C(F)(F)F)c(N2CCC[C@](C)(O)C2)n1 (stereo partly drawn) [I-810] | A (A (>75% o)) | < 100 |  |
| Cc1cc(S(=O)(=O)NC2CCC(CN3CCN(c4ccc(C5CCC(=O)NC5=O)cc4C)CC3)CC2)ccc1Nc1ncc(C(F)(F)F)c(N2CCCC(C)(O)C2)n1 (stereo not drawn) [I-811] | A (A (>75% o)) | < 100 |  |
| Cc1cc(S(=O)(=O)NC2CCC(CN3CCN(c4ccc(C5CCC(=O)NC5=O)c(C)c4F)CC3)CC2)ccc1Nc1ncc(C(F)(F)F)c(N2CCCC(C)(O)C2)n1 (stereo not drawn) [I-812] | A (A (>75% o)) | < 100 |  |
| Cc1cc(S(=O)(=O)NC2CCC(CN3CCN(c4ccc5c(c4F)n(C)c(=O)n5C4CCC(=O)NC4=O)CC3)CC2)ccc1Nc1ncc(C(F)(F)F)c(N2CCCC(C)(O)C2)n1 (stereo not drawn) [I-813] | A (A (>75% o)) | < 100 |  |
| Cc1cc(S(=O)(=O)NC2(C)CCC(CN3CCN(c4ccc(C5CCC(=O)NC5=O)cc4F)CC3)CC2)ccc1Nc1ncc(C(F)(F)F)c(N2CCC[C@](C)(O)C2)n1 (stereo partly drawn) [I-814] | A (A (>75% o)) | < 100 |  |
| Cc1cc(S(=O)(=O)NC2CCC(F)(CN3CCN(c4ccc(C5CCC(=O)NC5=O)cc4F)CC3)CC2)ccc1Nc1ncc(C(F)(F)F)c(N2CCC[C@](C)(O)C2)n1 (stereo partly drawn) [I-815] | A (A (>75% o)) | < 100 |  |

The remaining lines, values ahead:

| CDK2 degradation 14 h: Average Dmax % | DC50 [nM] | Dmax [%] | SMILES |
| --- | --- | --- | --- |
| A (A (>75% o)) | < 100 |  | Cc1cc(S(=O)(=O)NC2CC(N3CCN(CC4(F)CCN(c5cccc6c5n(C)c(=O)n6C5CCC(=O)NC5=O)CC4)CC3)C2)ccc1Nc1ncc(C(F)(F)F)c(N2CCCC(C)(O)C2)n1 (stereo not drawn) [I-698] |
| A (A (>75% o)) | < 100 |  | Cc1cc(S(=O)(=O)NC2CC(N3CCC(F)(CN4CCC(c5cccc6c5n(C)c(=O)n6C5CCC(=O)NC5=O)CC4)CC3)C2)ccc1Nc1ncc(C(F)(F)F)c(N2CCCC(C)(O)C2)n1 (stereo not drawn) [I-699] |
| A (A (>75% o)) | < 100 |  | Cc1cc(S(=O)(=O)NC2CC(N3CCCN(CC4CCN(c5cccc6c5n(C)c(=O)n6C5CCC(=O)NC5=O)CC4)CC3)C2)ccc1Nc1ncc(C(F)(F)F)c(N2CCCC(C)(O)C2)n1 (stereo not drawn) [I-704] |
| B (B (>50% -75%)) | < 100 |  | Cc1cc(S(=O)(=O)NC2CC(N3CCN(CC4CCN(c5ccc(NC6CCC(=O)NC6=O)cc5C)CC4)CC3)C2)ccc1Nc1ncc(C(F)(F)F)c(N2CCCC(C)(O)C2)n1 (stereo not drawn) [I-712] |
| A (A (>75% o)) | < 100 |  | Cc1cc(S(=O)(=O)NC2CC(N3CCN(CC4CCN(c5ccc(C6CCC(=O)NC6=O)c(Cl)c5)CC4)CC3)C2)ccc1Nc1ncc(C(F)(F)F)c(N2CCCC(C)(O)C2)n1 (stereo not drawn) [I-713] |
| A (A (>75% o)) | < 100 |  | Cc1cc(S(=O)(=O)NC2CC(N3CCN(CC4CCN(c5ccc(C6CCC(=O)NC6=O)c(Cl)c5)CC4)CC3)C2)ccc1Nc1ncc(C(F)(F)F)c(N2CCCC(C)(O)C2)n1 (stereo not drawn) [I-714] |
| A (A (>75% o)) | < 100 |  | Cc1cc(S(=O)(=O)NC2CC(N3CCN(CC4CCN(c5ccc(Cl)c(C6CCC(=O)NC6=O)c5)CC4)CC3)C2)ccc1Nc1ncc(C(F)(F)F)c(N2CCCC(C)(O)C2)n1 (stereo not drawn) [I-715] |
| A (A (>75% o)) | < 100 |  | Cc1cc(S(=O)(=O)NC2CC(N3CCN(CC4CCN(c5ccc(NC6CCC(=O)NC6=O)c(Cl)c5)CC4)CC3)C2)ccc1Nc1ncc(C(F)(F)F)c(N2CCCC(C)(O)C2)n1 (stereo not drawn) [I-717] |
| A (A (>75% o)) | < 100 |  | Cc1cc(S(=O)(=O)NC2CC(N3CCN(CC4CCN(c5ccc(C6CCC(=O)NC6=O)cc5)CC4)CC3)C2)ccc1Nc1ncc(C(F)(F)F)c(N2CCCC(C)(O)C2)n1 (stereo not drawn) [I-719] |
| A (A (>75% o)) | < 100 |  | Cc1cc(S(=O)(=O)NC2CC(N3CCN(CC4CCN(c5cc(NC6CCC(=O)NC6=O)ccc5Cl)CC4)CC3)C2)ccc1Nc1ncc(C(F)(F)F)c(N2CCCC(C)(O)C2)n1 (stereo not drawn) [I-720] |
| A (A (>75% o)) | < 100 |  | Cc1cc(S(=O)(=O)NC2CC(N3CCN(CC4CCN(c5ccc(N6CCC(=O)NC6=O)c(Cl)c5)CC4)CC3)C2)ccc1Nc1ncc(C(F)(F)F)c(N2CCCC(C)(O)C2)n1 (stereo not drawn) [I-721] |
| A (A (>75% o)) | < 100 |  | Cc1cc(S(=O)(=O)NC2CC(N3CCN(CC4CCN(c5ccc(Cl)c(N6CCC(=O)NC6=O)c5)CC4)CC3)C2)ccc1Nc1ncc(C(F)(F)F)c(N2CCCC(C)(O)C2)n1 (stereo not drawn) [I-722] |
|  | < 100 | > 75 | Cc1cc(S(=O)(=O)NC2CCC(CN3CCN(c4ccc(C5CCC(=O)NC5=O)c(Cl)c4)CC3)CC2)ccc1Nc1ncc(C(F)(F)F)c(N2CCC[C@](C)(O)C2)n1 (stereo partly drawn) [I-745, N-[4-[[4-[3-chloro-4-(2,6-dioxo-3-piperidyl)phenyl]piperazin-1-yl]methyl]cyclohexyl]-4-[[4-[(3S)-3-hydroxy-3-methyl-1-piperidyl]-5-(trifluoromethyl)pyrimidin-2-yl]amino]-3-methyl-benzenesulfonamide] |
